# Reference: US11591341B2 (ALIGOS THERAPEUTICS, INC., priority 2019, dated 2023)
# pEC50: −log10 of the molar value.
# Tested on: HBV
# Test: HBV-DNA Antiviral Assay Using HepG2.117 Cells (intracellular HBV DNA by qPCR)
# Type: cell-based, hepatitis B virus (genotype D)
# Conditions: Hepatitis B virus, HepG2.117
# Summary of the method: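 Endpoint: qPCR copy number of intracellular HBV DNA after 3-day compound exposure, with inhibition set relative to the 2% DMSO control. The cells were doxycycline-free HepG2.117 carrying a Tet-off genotype D genome, dosed at nine 4-fold dilutions. A duplicate plate gave ATP-based viability (CC50).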
row,SMILES,pEC50
1,"COc1ccc(CN2C/C=C\Cn3c(c4n(c3=O)CCN(C(=O)c3ccc(Br)c(Cl)c3)C4)C2=O)cc1 [Example 132, (11Z)-4-(4-bromo-3-chloro-benzoyl)-14-[(4-methoxyphenyl)methyl]-4,7,9,14-tetrazatricyclo[7.6.0.0^2,7]pentadeca-1,11-diene-8.15-dione]",6.30 to 7.00
2,"COc1ccc(CNC(=O)c2c3n(c(=O)n2-c2cccc(OC)c2)CCN(C(=O)c2ccc(Br)c(Cl)c2)C3)cc1 [Example 21, 7-(4-bromo-3-chloro-benzoyl)-2-(3-methoxyphenyl)-N-[(4-methoxyphenyl)methyl]-3-oxo-6,8-dihydro-5H-imidazo[1,5-a]pyrazine-1-carboxamide]",5.30 to 6.30
3,"C[C@H](NC(=O)c1c2n(c(=O)n1-c1ccc(OC3CC3)cc1)CCN(C(=O)c1ccc(Br)c(Cl)c1)C2)c1ccc(OC(F)(F)F)cc1F (stereo in doubt) [Example 291, 7-(4-bromo-3-chloro-benzoyl)-2-[4-(cyclopropoxy)phenyl]-3-oxo-N-[rac-(1S)-1-[2-fluoro-4-(trifluoromethoxy)phenyl]ethyl]-6,8-dihydro-5H-imidazo[1,5-a]pyrazine-1-carboxamide]",5.30 to 6.30
4,"C[C@@H](NC(=O)c1c2n(c(=O)n1-c1ccccc1)CCN(C(=O)c1ccc(Br)c(Cl)c1)C2)c1ccccc1 (stereo in doubt) [Example 37, 7-(4-bromo-3-chloro-benzoyl)-3-oxo-2-phenyl-N-[rac-(1R)-1-phenylethyl]-6,8-dihydro-5H-imidazo[1,5-a]pyrazine-1-carboxamide]",5.30 to 6.30
5,"O=C(NCc1ccccc1)c1c2n(c(=O)n1-c1ccc(OC(F)F)cc1)CCN(C(=O)c1ccc(Cl)c(Cl)c1)C2 [Example 121, N-benzyl-7-(3,4-dichlorobenzoyl)-2-[4-(difluoromethoxy)phenyl]-3-oxo-6,8-dihydro-5H-imidazo[1,5-a]pyrazine-1-carboxamide]",5.30 to 6.30
6,"NC(=O)COc1ccc(CNC(=O)c2c3n(c(=O)n2-c2ccc(OC4CC4)cc2)CCN(C(=O)c2ccc(Br)c(Cl)c2)C3)c(F)c1 [Example 324, N-[[4-(2-amino-2-oxo-ethoxy)-2-fluoro-phenyl]methyl]-7-(4-bromo-3-chloro-benzoyl)-2-[4-(cyclopropoxy)phenyl]-3-oxo-6,8-dihydro-5H-imidazo[1,5-a]pyrazine-1-carboxamide]",6.30 to 7.00
7,"C[C@H](NC(=O)c1c2n(c(=O)n1-c1ccc(OCC(F)(F)F)cc1)CCN(C(=O)c1ccc(Br)c(Cl)c1)C2)c1ccc(OCC(N)=O)cc1-n1cccn1 (stereo in doubt) [Example 380, 7-(4-bromo-3-chloro-benzoyl)-3-oxo-N-[rac-(1S)-1-[4-(2-amino-2-oxo-ethoxy)-2-pyrazol-1-yl-phenyl]ethyl]-2-[4-(2,2,2-trifluoroethoxy)phenyl]-6,8-dihydro-5H-imidazo[1,5-a]pyrazine-1-carboxamide]",< 5.30
8,"C[C@@H](Oc1ccc(CNC(=O)c2c3n(c(=O)n2-c2ccc(OCC(F)(F)F)cc2)CCN(C(=O)c2ccc(Br)c(Cl)c2)C3)c(F)c1)C(N)=O (stereo in doubt) [Example 354, 7-(4-bromo-3-chloro-benozyl)-N-[[2-fluoro-4-[rac-(1R)-2-amino-1-methyl-2-oxo-ethoxy]phenyl]methyl]-3-oxo-2-[4-(2,2,2-trifluoroethoxy)phenyl]-6,8-dihydro-5H-imidazo[1,5-a]pyrazine-1-carboxamide]",5.30 to 6.30
9,"C[C@@H]1Cn2c(c(C(=O)NCc3ccccc3-n3cncn3)n(-c3ccc(OC4CC4)cc3)c2=O)CN1C(=O)c1ccc(Br)c(Cl)c1 (stereo in doubt) [Example 447, rac-(6R)-7-(4-bromo-3-chloro-benzoyl)-2-[4-(cyclopropoxy)phenyl]-6-methyl-3-oxo-N-[[2-(1,2,4-triazol-1-yl)phenyl]methyl]-6,8-dihydro-5H-imidazo[1,5-a]pyrazine-1-carboxamide]",6.30 to 7.00
10,"COc1ccc(-n2c(C(=O)NCc3ccccc3C#N)c3n(c2=O)CCN(C(=O)c2ccc(Br)c(Cl)c2)C3)cc1 [Example 154, 7-(4-bromo-3-chloro-benzoyl)-N-[(2-cyanophenyl)methyl]-2-(4-methoxyphenyl)-3-oxo-6,8-dihydro-5H-imidazo[1,5-a]pyrazine-1-carboxamide]",6.30 to 7.00
11,"CC(C)Oc1ccc(-n2c(C(=O)NCc3ccc(=O)n(C)c3)c3n(c2=O)CCN(C(=O)c2ccc(Br)c(Cl)c2)C3)cc1 [Example 232, 7-(4-bromo-3-chloro-benzoyl)-2-(4-isopropoxyphenyl)-N-[(1-methyl-6-oxo-3-pyridyl)methyl]-3-oxo-6,8-dihydro-5H-imidazo[1,5-a]pyrazine-1-carboxamide]",< 5.30
12,"COc1ccc(-n2c(C(=O)NCc3ccncc3)c3n(c2=O)CCN(C(=O)c2ccc(Cl)c(Cl)c2)C3)cc1 [Example 57, 7-(3,4-dichlorobenzoyl)-2-(4-methoxyphenyl)-3-oxo-N-(4-pyridylmethyl)-6,8-dihydro-5H-imidazo[1,5-a]pyrazine-1-carboxamide]",< 5.30
13,"CC(C)(Oc1ccc(-n2c(C(=O)NCc3ccccc3)c3n(c2=O)CCN(C(=O)c2ccc(Br)c(Cl)c2)C3)cc1)C(F)(F)F [Example 393, N-benzyl-7-(4-bromo-3-chloro-benzoyl)-3-oxo-2-[4-(2,2,2-trifluoro-1,1-dimethyl-ethoxy)phenyl]-6,8-dihydro-5H-imidazo[1,5-a]pyrazine-1-carboxamide]",5.30 to 6.30
14,"O=C(NCc1ccccc1)c1c2n(c(=O)n1-c1ccc3[nH]ncc3c1)CCN(C(=O)c1ccc(Br)c(Cl)c1)C2 [Example 298, N-benzyl-7-(4-bromo-3-chloro-benzoyl)-2-(1H-indazol-5-yl)-3-oxo-6,8-dihydro-5H-imidazo[1,5-a]pyrazine-1-carboxamide]",5.30 to 6.30
15,"COc1ccc(-n2c(C(=O)NCc3ccccc3)c3n(c2=O)C[C@H](C)N(C(=O)c2ccc(Br)c(Cl)c2)C3)cc1 (racemic) [Example 199, rac-(6S)-N-benzyl-7-(4-bromo-3-chloro-benzoyl)-2-(4-methoxyphenyl)-6-methyl-3-oxo-6,8-dihydro-5H-imidazo[1,5-a]pyrazine-1-carboxamide]",6.30 to 7.00
16,"COc1ccc(-n2c(C(=O)NCc3ccccc3)c3n(c2=O)CCN(C(=O)c2ccc(Cl)c(Cl)c2)C3)cc1C [Example 124, N-benzyl-7-(3,4-dichlorobenzoyl)-2-(4-methoxy-3-methyl-phenyl)-3-oxo-6,8-dihydro-5H-imidazo[1,5-a]pyrazine-1-carboxamide]",5.30 to 6.30
17,"COc1ccc(-n2c(C(=O)NCc3ccccc3)c3n(c2=O)CCN(c2ncnc4cc(Cl)ccc24)C3)cc1 [Example 117, N-benzyl-7-(7-chloroquinazolin-4-yl)-2-(4-methoxyphenyl)-3-oxo-6,8-dihydro-5H-imidazo[1,5-a]pyrazine-1-carboxamide]",< 5.30
18,"O=C(NCc1ccccc1)c1c2n(c(=O)n1-c1ccc(N3CCC(F)(F)C3)cc1)CCN(C(=O)c1ccc(Br)c(Cl)c1)C2 [Example 392, N-benzyl-7-(4-bromo-3-chloro-benzoyl)-2-[4-(3,3-difluoropyrrolidin-1-yl)phenyl]-3-oxo-6,8-dihydro-5H-imidazo[1,5-a]pyrazine-1-carboxamide]",6.30 to 7.00
19,"O=C(NCc1ccccc1)c1c2n(c(=O)n1-c1ccc(Cl)cc1)CCN(C(=O)c1ccc(Br)c(Cl)c1)C2 [Example 26, N-benzyl-7-(4-bromo-3-chloro-benzoyl)-2-(4-chlorophenyl)-3-oxo-6,8-dihydro-5H-imidazo[1,5-a]pyrazine-1-carboxamide]",5.30 to 6.30
20,"CC(C)Oc1ccc(-n2c(-c3ncc(Cc4ccccc4)s3)c3n(c2=O)CCN(C(=O)c2ccc(Br)c(Cl)c2)C3)cc1 [Example 325, 1-(5-benzylthiazol-2-yl)-7-(4-bromo-3-chlorobenzoyl)-2-(4-isopropoxyphenyl)-5,6,7,8-tetrahydroimidazo[1,5-a]pyrazin-3(2H)-one]",< 5.30
21,"COc1ccc(C(C)NC(=O)c2c3n(c(=O)n2-c2ccc(OC4CC4)cc2)CCN(C(=O)c2ccc(Br)c(Cl)c2)C3)c(F)c1 (racemic) [Example 420, 7-(4-bromo-3-chloro-benzoyl)-2-[4-(cyclopropoxy)phenyl]-3-oxo-N-[rac-(1R)-1-(2-fluoro-4-methoxy-phenyl)ethyl]-6,8-dihydro-5H-imidazo[1,5-a]pyrazine-1-carboxamide]",> 7.00
22,"C[C@H](NC(=O)c1c2n(c(=O)n1-c1ccc(OC3CC3)cc1)CCN(C(=O)c1ccc(Br)c(Cl)c1)C2)c1ccc(OCC(N)=O)cc1F (stereo in doubt) [Example 315, 7-(4-bromo-3-chloro-benzoyl)-2-[4-(cyclopropoxy)phenyl]-3-oxo-N-[rac-(1R)-1-[4-(2-amino-2-oxo-ethoxy)-2-fluoro-phenyl]ethyl]-6,8-dihydro-5H-imidazo[1,5-a]pyrazine-1-carboxamide]",5.30 to 6.30
23,"CC1Cn2c(c(C(=O)NCc3ccccc3)n(-c3ccc(OC4CC4)cc3)c2=O)CN1C(=O)c1ccc(Br)c(Cl)c1 (racemic) [Example 301, rac-(6R)-N-benzyl-7-(4-bromo-3-chloro-benzoyl)-2-[4-(cyclopropoxy)phenyl]-6-methyl-3-oxo-6,8-dihydro-5H-imidazo[1,5-a]pyrazine-1-carboxamide]",5.30 to 6.30
24,"COc1ccc(CN2Cc3c4n(c(=O)n3C[C@@H](O)C2)CCN(C(=O)c2ccc(Br)c(Cl)c2)C4)c(F)c1 (stereo in doubt) [Example 289, rac-(11S)-4-(4-bromo-3-chloro-benzoyl)-13-[(2-fluoro-4-methoxy-phenyl)methyl]-11-hydroxy-4,7,9,13-tetrazatricyclo[7,5.0.0^2,7]tetradec-1-ene-8,14-dione]",6.30 to 7.00
25,"C[C@@H](NC(=O)c1c2n(c(=O)n1-c1ccc(OCC(F)(F)F)cc1)CCN(C(=O)c1ccc(Br)c(Cl)c1)C2)c1ccc(OC(C)(C)C(N)=O)cc1F (stereo in doubt) [Example 337, 7-(4-bromo-3-chloro-benzoyl)-3-oxo-N-[rac-(1R)-1-[4-(2-amino-1,1-dimethyl-2-oxo-ethoxy)-2-fluoro-phenyl]ethyl]-2-[4-(2,2,2-trifluoroethoxy)phenyl]-6,8-dihydro-5H-imidazo[1,5-a]pyrazine-1-carboxamide]",6.30 to 7.00
